The compounds below were run against T1, human FXR (NR1H4) (Homo sapiens, UniProt Q96RI1) (assay: Human FXR (NR1H4) Assay (Gal4 promoter driven luciferase reporter, Indigo Bioscience kit IB00601)). Conditions: FXR agonistic potency; CHO reporter cells expressing human NR1H4; 22 hours incubation; luciferase readout.
T1 sequence (Q96RI1 1-486): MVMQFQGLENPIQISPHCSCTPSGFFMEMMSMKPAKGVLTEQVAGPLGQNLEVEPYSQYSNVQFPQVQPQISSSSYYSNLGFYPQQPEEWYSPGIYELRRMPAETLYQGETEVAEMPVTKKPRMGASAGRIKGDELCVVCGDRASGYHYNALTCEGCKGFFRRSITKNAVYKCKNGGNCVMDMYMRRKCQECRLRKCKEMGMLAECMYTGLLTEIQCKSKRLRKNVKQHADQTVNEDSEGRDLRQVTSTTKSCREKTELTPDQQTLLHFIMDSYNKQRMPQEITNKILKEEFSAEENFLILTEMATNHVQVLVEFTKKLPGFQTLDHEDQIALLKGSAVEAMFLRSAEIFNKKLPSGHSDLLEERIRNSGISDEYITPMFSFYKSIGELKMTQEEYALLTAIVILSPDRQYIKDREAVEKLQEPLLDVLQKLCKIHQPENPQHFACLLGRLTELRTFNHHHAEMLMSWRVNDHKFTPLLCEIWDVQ
Assay type: cell-based
Text: Determination of a ligand mediated Gal4 promoter driven transactivation to quantify ligand binding mediated activation of FXR. FXR Reporter Assay kit purchased from Indigo Bioscience (Catalogue number: IB00601) to determine the potency and efficacy of compound developed by Enanta that can induce FXR activation. The principle application of this reporter assay system is to quantify functional activity of human FXR. The assay utilizes non-human mammalian cells, CHO (Chinese hamster ovary) cells engineered to express human NR1H4 protein (referred to as FXR). Reporter cells also incorporate the cDNA encoding beetle luciferase which catalyzes the substrates and yields photon emission. Luminescence intensity of the reaction is quantified using a plate-reading luminometer, Envision. Reporter Cells include the luciferase reporter gene functionally linked to an FXR responsive promoter. Thus, quantifying changes in luciferase expression in the treated reporter cells provides a sensitive surrogate measure of the changes in FXR activity. […] The assay is according to the manufacturer's instructions. In brief, the assay was performed in white, 96 well plates using final volume of 100 uL containing cells with different doses of compounds. Retrieve Reporter Cells from −80° C. storage. Perform a rapid thaw of the frozen cells by transferring a 10 ml volume of 37° C. cell recovery medium into the tube of frozen cells. Recap the tube of Reporter Cells and immediately place it in a 37° C. water bath for 5-10 minutes. Retrieve the tube of Reporter Cell Suspension from the water bath. Sanitize the outside surface of the tube with a 70% alcohol swab, and then transfer it into the cell culture hood. Dispense 90 μl of cell suspension into each well of the 96-well Assay Plate. Transfer the plate into 37° C. incubator, allowing the cells adherent to the bottom of the well. Dilute compounds in Dilution Plate (DP), and administrate to cells at Assay Plate (AP). DMSO content of the samples was kept at 0.2%. Cells were incubated for additional 22 hours before luciferase activities were measured. Thirty minutes before intending to quantify FXR activity, remove Detection Substrate and Detection Buffer from the refrigerator and place them in a low-light area so that they may equilibrate to room temperature. Remove the plate's lid and discard all media contents by ejecting it into an appropriate waste container. Gently tap the inverted plate onto a clean absorbent paper towel to remove residual droplets. Cells will remain tightly adhered to well bottoms. Add 100 μl of luciferase detection reagent to each well of the assay plate. Allow the assay plate to rest at room temperature for at least 5 minutes following the addition of LDR. Set the instrument (Envision) to perform a single 5 second “plate shake” prior to reading the first assay well. Read time may be 0.5 second (500 mSec) per well.
For `C[C@H](COC(=O)NS(=O)(=O)c1ccc(OC(C)(C)C)cc1)[C@H]1CC[C@H]2[C@@H]3[C@H](O)C[C@@H]4C[C@H](O)CC[C@]4(C)[C@H]3CC[C@]12C` [Example 2], the EC50 was 10 to 100 nM. `CC(C)Oc1ccc(S(=O)(=O)NC(=O)OC[C@@H](C)[C@H]2CC[C@H]3[C@@H]4[C@H](O)C[C@@H]5C[C@H](O)CC[C@]5(C)[C@H]4CC[C@]23C)cc1` [Example 3] gave an EC50 greater than 100 nM. `CC[C@H]1[C@@H](O)[C@@H]2[C@H](CC[C@]3(C)[C@@H]([C@H](C)COC(=O)NS(=O)(=O)c4ccc(OC(C)C)cc4)CC[C@@H]23)[C@@]2(C)CC[C@@H](O)C[C@@H]12` [Example 4] was tested, and the EC50 was less than 1 nM. `CC[C@H]1[C@@H](O)[C@@H]2[C@H](CC[C@]3(C)[C@@H]([C@H](C)COC(=O)NS(=O)(=O)c4ccc5c(c4)CCC(C)(C)O5)CC[C@@H]23)[C@@]2(C)CC[C@@H](O)C[C@@H]12` [Example 5] gave an EC50 of less than 1 nM. For `CC[C@H]1[C@@H](O)[C@@H]2[C@H](CC[C@]3(C)[C@@H]([C@H](C)COC(=O)NS(=O)(=O)c4ccc5c(c4)CC(C)(C)O5)CC[C@@H]23)[C@@]2(C)CC[C@@H](O)C[C@@H]12` [Example 6], the EC50 was less than 1 nM. `CC[C@H]1[C@@H](O)[C@@H]2[C@H](CC[C@]3(C)[C@@H]([C@H](C)COC(=O)NS(=O)(=O)c4ccc(OC5CC5)cc4)CC[C@@H]23)[C@@]2(C)CC[C@@H](O)C[C@@H]12` [Example 7] showed an EC50 of less than 1 nM. For `CC[C@H]1[C@@H](O)[C@@H]2[C@H](CC[C@]3(C)[C@@H]([C@H](C)COC(=O)NS(=O)(=O)c4ccc(OC5CCC5)cc4)CC[C@@H]23)[C@@]2(C)CC[C@@H](O)C[C@@H]12` [Example 8], the EC50 was less than 1 nM. Work on `CC[C@H]1[C@@H](O)[C@@H]2[C@H](CC[C@]3(C)[C@@H]([C@H](C)COC(=O)NS(=O)(=O)c4ccc(OC5CCCC5)cc4)CC[C@@H]23)[C@@]2(C)CC[C@@H](O)C[C@@H]12` [Example 9] yielded an EC50 of less than 1 nM. `CC[C@H]1[C@@H](O)[C@@H]2[C@H](CC[C@]3(C)[C@@H]([C@H](C)COC(=O)NS(=O)(=O)c4ccc(OC5(C)CCCC5)cc4)CC[C@@H]23)[C@@]2(C)CC[C@@H](O)C[C@@H]12` [Example 10] was tested, and the EC50 was less than 1 nM. With `CC[C@H]1[C@@H](O)[C@@H]2[C@H](CC[C@]3(C)[C@@H]([C@H](C)COC(=O)NS(=O)(=O)c4ccc(OC5CCCCC5)cc4)CC[C@@H]23)[C@@]2(C)CC[C@@H](O)C[C@@H]12` [Example 11] the EC50 was 1 to 10 nM. Work on `CC[C@H]1[C@@H](O)[C@@H]2[C@H](CC[C@]3(C)[C@@H]([C@H](C)COC(=O)NS(=O)(=O)c4ccc(OC5(C)CCCCC5)cc4)CC[C@@H]23)[C@@]2(C)CC[C@@H](O)C[C@@H]12` [Example 12] yielded an EC50 of less than 1 nM. For `CC[C@H]1[C@@H](O)[C@@H]2[C@H](CC[C@]3(C)[C@@H]([C@H](C)COC(=O)NS(=O)(=O)c4ccc(OC(C)C)c(C)c4)CC[C@@H]23)[C@@]2(C)CC[C@@H](O)C[C@@H]12` [Example 13], the EC50 was less than 1 nM. Compound `CCOc1ccc(S(=O)(=O)NC(=O)OC[C@@H](C)[C@H]2CC[C@H]3[C@@H]4[C@H](O)[C@H](CC)[C@@H]5C[C@H](O)CC[C@]5(C)[C@H]4CC[C@]23C)cc1` [Example 14] has an EC50 of less than 1 nM. `CCCOc1ccc(S(=O)(=O)NC(=O)OC[C@@H](C)[C@H]2CC[C@H]3[C@@H]4[C@H](O)[C@H](CC)[C@@H]5C[C@H](O)CC[C@]5(C)[C@H]4CC[C@]23C)cc1` [Example 15] gave an EC50 of less than 1 nM. `CC[C@H]1[C@@H](O)[C@@H]2[C@H](CC[C@]3(C)[C@@H]([C@H](C)COC(=O)NS(=O)(=O)c4ccc(O[C@@H](C)CC)cc4)CC[C@@H]23)[C@@]2(C)CC[C@@H](O)C[C@@H]12` [Example 16] gave an EC50 of less than 1 nM. `CC[C@H]1[C@@H](O)[C@@H]2[C@H](CC[C@]3(C)[C@@H]([C@H](C)COC(=O)NS(=O)(=O)c4ccc(O[C@H](C)CC)cc4)CC[C@@H]23)[C@@]2(C)CC[C@@H](O)C[C@@H]12` [Example 17] gave an EC50 of less than 1 nM. `CC[C@H]1[C@@H](O)[C@@H]2[C@H](CC[C@]3(C)[C@@H]([C@H](C)COC(=O)NS(=O)(=O)c4cc(C)c(OC(C)C)c(C)c4)CC[C@@H]23)[C@@]2(C)CC[C@@H](O)C[C@@H]12` [Example 18] was tested, and the EC50 was less than 1 nM. Compound `CCC(CC)Oc1ccc(S(=O)(=O)NC(=O)OC[C@@H](C)[C@H]2CC[C@H]3[C@@H]4[C@H](O)[C@H](CC)[C@@H]5C[C@H](O)CC[C@]5(C)[C@H]4CC[C@]23C)cc1` [Example 19] has an EC50 of 10 to 100 nM. For `CC[C@H]1[C@@H](O)[C@@H]2[C@H](CC[C@]3(C)[C@@H]([C@H](C)COC(=O)NS(=O)(=O)c4ccc(OCC(C)(C)C)cc4)CC[C@@H]23)[C@@]2(C)CC[C@@H](O)C[C@@H]12` [Example 20], the EC50 was 1 to 10 nM. `CCCCOc1ccc(S(=O)(=O)NC(=O)OC[C@@H](C)[C@H]2CC[C@H]3[C@@H]4[C@H](O)[C@H](CC)[C@@H]5C[C@H](O)CC[C@]5(C)[C@H]4CC[C@]23C)cc1` [Example 21] gave an EC50 of 1 to 10 nM. Compound `CC[C@H]1[C@@H](O)[C@@H]2[C@H](CC[C@]3(C)[C@@H]([C@H](C)COC(=O)NS(=O)(=O)c4ccc(OC(C)(C)C)cn4)CC[C@@H]23)[C@@]2(C)CC[C@@H](O)C[C@@H]12` [Example 22] has an EC50 of less than 1 nM. With `CC[C@H]1[C@@H](O)[C@@H]2[C@H](CC[C@]3(C)[C@@H]([C@H](C)COC(=O)NS(=O)(=O)c4ccc(OC(F)(F)F)cc4)CC[C@@H]23)[C@@]2(C)CC[C@@H](O)C[C@@H]12` [Example 23] the EC50 was greater than 100 nM. Work on `CC[C@H]1[C@@H](O)[C@@H]2[C@H](CC[C@]3(C)[C@@H]([C@H](C)COC(=O)NS(=O)(=O)c4ccc(OC(C)(C)C)cc4)CC[C@@H]23)[C@@]2(C)CC[C@@H](O)C[C@@H]12` [Example 24] yielded an EC50 of less than 1 nM. Compound `CC[C@H]1[C@@H](O)[C@@H]2[C@H](CC[C@]3(C)[C@@H]([C@H](C)COC(=O)NS(=O)(=O)c4ccc(Oc5ccccc5)cc4)CC[C@@H]23)[C@@]2(C)CC[C@@H](O)C[C@@H]12` [Example 25] has an EC50 greater than 100 nM. Compound `CC[C@H]1[C@@H](O)[C@@H]2[C@H](CC[C@]3(C)[C@@H]([C@H](C)COC(=O)NS(=O)(=O)c4ccc(O)cc4)CC[C@@H]23)[C@@]2(C)CC[C@@H](O)C[C@@H]12` [Example 26] has an EC50 greater than 100 nM. Compound `CC[C@H]1[C@@H](O)[C@@H]2[C@H](CC[C@]3(C)[C@@H]([C@H](C)COC(=O)NS(=O)(=O)c4ccc(OC)cc4)CC[C@@H]23)[C@@]2(C)CC[C@@H](O)C[C@@H]12` [Example 27] has an EC50 of 1 to 10 nM. `CC[C@H]1[C@@H](O)[C@@H]2[C@H](CC[C@]3(C)[C@@H]([C@H](C)COC(=O)NS(=O)(=O)c4cnc(OC(C)C)nc4)CC[C@@H]23)[C@@]2(C)CC[C@@H](O)C[C@@H]12` [Example 28] was tested, and the EC50 was 10 to 100 nM. `CC[C@H]1[C@@H](O)[C@@H]2[C@H](CC[C@]3(C)[C@@H]([C@H](C)COC(=O)NS(=O)(=O)c4ccc(OC5(C)CC5)cc4)CC[C@@H]23)[C@@]2(C)CC[C@@H](O)C[C@@H]12` [Example 29] gave an EC50 of less than 1 nM. For `CC[C@H]1[C@@H](O)[C@@H]2[C@H](CC[C@]3(C)[C@@H]([C@H](C)COC(=O)NS(=O)(=O)c4ccc(OC(F)(F)C(F)(F)F)cc4)CC[C@@H]23)[C@@]2(C)CC[C@@H](O)C[C@@H]12` [Example 30], the EC50 was 1 to 10 nM.

From patent US10472386B2, “Bile acid derivatives as FXR agonists and methods of use thereof” (priority 2017, dated 2019)
